Where only a bound is given, the exact number is not on record here.

Holding throughout (format): physicochemical
Data set [1] is described as follows: Gelation temperature (Tg/Tgel) of diluent and reconstituted formulation, initial and on stability storage. The procedure: The target for the 2 compartment formulations: • Gelation temperature 30-37 C • Gelation time—less than 5 minutes • Reconstitution time—less than 1 minutes • Viscosity at RT—less than 3000 cps • Reconstituted formulation should be stable for at least 3 hours
To understand the reproducibility of the gelation temperature, multiple batches were prepared and stability was monitored. In addition to this in one of batch, source of Mesalamine is varied to understand its impact on the various physical parameters.
During the stability study, only gelation temperature and the pH of the reconstituted formulation was monitored.
Formulation with 2% Lipoid S 100 has been considered as the lead formula. Reproducible batches with batch size (3-4 Kg) were manufactured and stability was monitored. These batches were packed into different packaging material MoC to understand its impact on the physical properties.

Data set [2] is described as follows: Stability of one-part formulations stored at 60° C. The note with it: after preparation of one-part formulations; oxidation in an aqueous solution.
A short description of data set [3]: Excipient compatibility study (gelation temperature, constant 15% poloxamer 407). The note with it: change from initial. The procedure:
Excipients were studied for compatibility. Constant—15% poloxamer 407 was used. The compatibility study was carried out with the following excipients: Mesalamine—6.67%; Transcutol—10%; EDTA—0.1%; Polocarbophil—0.25%+Tris—0.15%; TPGS—0.2%; NaCl—0.5%; Sodium metabisulfite—0.2%; PVA 30 CPS—1%; Kollidon 30-1%. The following lipids were investigated: DSPC—0.5%+DPCC—0.5%; Phospholipon 90G—1%; Lipoid S 100-1%; Phospholipon 90H—1%; Lecithin—1%. The following combination of poloxamer grades was also studied Poloxamer 188-1.5, 2.5 and 5%. No or marginal impact (1-2° C. from initial) was found for the following excipients: Transcutol, EDTA, TPGS, NaCl, and PVA. Moderate impact (2-5° C. from initial) was found with Mesalamine. […] No or marginal impact (1-2° C. from initial) was found in combinations with DSPC+DPCC, Phospholipon 90 G, and Lipoid S 100. […] All poloxamer combinations were stable for 28 days.

Consider `Cc1cc(C(C)(C)C)c(O)c(C(C)(C)C)c1` [BHT], for which the “effect of additive on gelation temperature” value in data set [1] was “lowers the gelation temperature”. As for `Nc1ccc(O)c(C(=O)O)c1` [Mesalamine, 5-aminosalicylic acid], the “time to turn brown” value in data set [2] was at most 3 days. In the case of `O=S([O-])S(=O)(=O)[O-].[Na+].[Na+]` [sodium metabisulfite], in data set [3], the “impact on gelation temperature” value was “Significant impact”.

Values taken from US20250090552A1, “MESALAMINE PHARMACEUTICAL FORMULATIONS AND METHODS OF USE THEREOF” (Intact Therapeutics, Inc., priority 2022, published 2025).
